Assay: Test E: determination of thrombin time ex vivo (bioavailability of active inhibitor after prodrug administration)
Details: conscious rat, estimated from thrombin time or ecarin clotting time in plasma
Text: Determination of Thrombin Time Ex Vivo
The inhibition of thrombin after oral or parenteral administration of the compounds of formula I, dissolved in ethanol:Solutol™:water (5:5:90), were examined in conscious rats which, one or two days prior to the experiment, were equipped with a catheter for blood sampling from the carotid artery. On the experimental day blood samples were withdrawn at fixed times after the administration of the compound into plastic tubes containing 1 part sodium citrate solution (0.13 mol per L) and 9 parts of blood. The tubes were centrifuged to obtain platelet poor plasma. The plasma was used for determination of thrombin time or ecarin clotting time (ECT) as described below.
The citrated rat plasma, 100 μL, was diluted with a saline solution, 0.9%, 100 μL, and plasma coagulation was started by the addition of human thrombin (T 6769, Sigma Chem Co, USA or Hematologic Technologies) in a buffer solution, pH 7.4, 100 μL, or ecarin (Pentapharm). The clotting time was measured in an automatic device (KC 10, Amelung, Germany).
[(AUCpd/dose)/(AUCactive,parenteral/dose]×100

Compound	oral and/or parenteral bioavailability as the corresponding active inhibitor (free amidine)
CON=C(N)c1ccc(CNC(=O)[C@@H]2CCN2C(=O)C(O)c2cc(Cl)cc(N(C)C)c2)cc1 (single isomer, unassigned) [Example 12, Ph(3-Cl,5-NMe2)-(R) or-(S)CH(OH)C(O)-Aze-Pab(OMe)]	exhibit oral and/or parenteral bioavailability in the rat
CON=C(N)c1ccc(CNC(=O)C2CCN2C(=O)C(O)c2cc(Cl)cc(N(C)C(C)=O)c2)cc1.O=C(O)C(F)(F)F (single isomer, unassigned) [Example 18, Ph(3-Cl,5-NMeAc)-(R) or-(S)CH(OH)C(O)-Aze-Pab(OMe)×TFA]	exhibit oral and/or parenteral bioavailability in the rat
CON=C(N)c1ccc(CNC(=O)C2CCN2C(=O)C(O)c2cccc(N3CCCC3=O)c2)cc1.O=C(O)C(F)(F)F (single isomer, unassigned) [Example 19, Ph(3-(1-Pyrrolidin-2-one))-(R) or-(S)CH(OH)C(O)-Aze-Pab(OMe)×TFA]	exhibit oral and/or parenteral bioavailability in the rat
CON=C(N)c1ccc(CNC(=O)C2CCN2C(=O)C(O)c2cccc(N(C)C)c2)cc1 [Example 2, Ph(3-N(Me)2)-(R)- or-(S)CH(OH)—CO-Aze-Pab(OMe)]	exhibit oral and/or parenteral bioavailability in the rat
Ph(3-Cl,5-NMe2)-(R) or -(S)CH(OH)C(O)-Aze-Pab(O-Et) [Example 13]	exhibit oral and/or parenteral bioavailability in the rat
Ph(3-Cl,5-NMe2)-(R) or -(S)CH(OH)C(O)-Aze-Pab(O-i-Pr) [Example 15]	exhibit oral and/or parenteral bioavailability in the rat

Source: US6599894B1, “Amidinobenzylamine derivatives and their use as thrombin inhibitors” (AstŕaZeneca AB, priority 1999, dated 2003)
